Data published in PMC7927096, “Dipeptides of S-Substituted Dehydrocysteine as Artzyme Building Blocks: Synthesis, Complexing Abilities and Antiproliferative Properties” (International Journal of Molecular Sciences, 2021).
Counter-ions that a name gives are not always drawn. Like-named read-outs stand apart in the source and are kept apart here.

How the values were obtained:
[1] = system: Balb/3T3 (non-tumorigenic murine fibroblasts); test: Antiproliferative activity, sulforhodamine B assay; type: cell-based; settings: SRB, 72 h incubation, non-tumorigenic line, read-out: IC50 ± SD, Balb/3T3
From the text: (§1) Ten different human cancer cell lines (including drug-resistant sublines) and one non-tumorigenic murine fibroblasts cell line were used to determine antiproliferative activity of the tested compounds. The MDA-MB-231 (breast adenocarcinoma), UM-UC-3 (urinary bladder transitional cell carcinoma), LoVo (colorectal adenocarcinoma), LoVo^Dx (colorectal adenocarcinoma, doxorubicin-resistant) and Balb/3T3 (non-tumorigenic murine fibroblasts) were purchased from the American Type Culture Collection (ATCC; Rockville, USA). The MCF-7 (breast adenocarcinoma) and A549 (lung carcinoma) were purchased from European Collection of Authenticated Cell Cultures (ECACC; Porton Down, UK). The UM-UC-3^CDDP, UM-UC-3^GEM, UM-UC-3^VBL, and UM-UC-3^CDDP/GEM cell lines were established at Hirszfeld Institute of Immunology and Experimental Therapy of the Polish Academy of Sciences (HIIET, PAS, Wroclaw, Poland) by the continuous exposure to the increasing concentrations of corresponding cytostatics.
(§2) The Balb/3T3 and UM-UC-3 were cultured in Dulbecco’s Modified Eagle Medium (DMEM; Life Technologies, UK) supplemented with 10% (v/v) fetal bovine serum (FBS; GE Healthcare HyClone, Logan, USA) and 2 mM L-glutamine (Sigma-Aldrich, Poznań, Poland). The UM-UC-3^CDDP, UM-UC-3^GEM, UM-UC-^3VBL, and UM-UC-3^CDDP/GEM culture media were additionally supplemented with appropriate cytostatics: 2.5 µg/mL cisplatin (Accord, Warsaw, Poland) for UM-UC-3^CDDP, 500 nM gemcitabine (Sigma-Aldrich, Poznań, Poland) for UM-UC-3^GEM, 5 nM vinblastine (Sigma-Aldrich, Poznań, Poland) for UM-UC-3VBL, 2.5 µg/mL cisplatin and 500 nM gemcitabine for UM-UC-3^CDDP/GEM. The LoVo cell line was cultured in F-12K Nutrient Mixture (F-12K; Corning, Corning, USA), supplemented with 10% (v/v) FBS. LoVo^Dx culture medium was additionally supplemented with doxorubicin 100 ng/mL (Accord, Warsaw, Poland). The MCF-7 cell line was cultured in Eagle’s medium (HIIET, PAS, Wroclaw, Poland), supplemented with 10% (v/v) FBS (Sigma-Aldrich, Poznań, Poland), 2 mM L-glutamine, MEM non-essential amino acid solution 1% (v/v) (Sigma-Aldrich, Poznań, Poland), insulin 8 µg/mL (Sigma-Aldrich, Poznań, Poland). The MDA-MB-231 cell line was cultured in RPMI 1640 (HIIET, PAS, Wroclaw, Poland), supplemented with 10% (v/v) FBS (Sigma-Aldrich, Poznań, Poland) and 2 mM L-glutamine. The A 549 cell line was cultured in OptiMEM (HIIET, PAS, Wroclaw, Poland), supplemented with 5% (v/v) FBS (GE Healthcare HyClone, Logan, USA) and 2 mM L-glutamine. All culture media were supplemented with antibiotics—100 μg/mL streptomycin (Polfa Tarchomin, Warsaw, Poland) and 100 U/mL penicillin (Sigma-Aldrich, Poznań, Poland).
(§3) All cell lines were cultured in a humidified atmosphere at 37 °C with 5% (v/v) CO2 and passaged twice a week using EDTA-Trypsin solution (pH 8; HIIET, Wroclaw, Poland) as a detachment agent.
(§4) All compounds, for antiproliferative activity assessment, were stored at […] as 50 mM solutions in dimethyl sulfoxide (DMSO; Avantor Performance Materials, Gliwice, Poland).
(§5) The cells were seeded on 384-well plates (Greiner Bio One, Kremsmünster, Austria) at 1 × 10^3 cells/well density for A 549, UM-UC-3, UM-UC-3^CDDP, UM-UC-3^GEM, UM-UC-3^CVBL and UM-UC-3^CDDP/GEM cell lines. Other cell lines were seeded at 2 × 10^3 cells/well. After overnight incubation, compounds were applied at eight concentrations (ranging from 100 µM to 0.03 µM). After 72 h incubation, the sulforhodamine B (SRB) assay based on Skehan et al. was carried out with slight modifications. In brief, 50 µL of the medium was replaced with 30 µL/well of 25% (w/v) trichloroacetic acid (Avantor Performance Materials, Gliwice, Poland). After 1 h incubation at room temperature, plates were washed three times with tap water, and 20 µL of 0.1% (w/v) solution of sulforhodamine B (Sigma-Aldrich, Poznan, Poland) in 1% (v/v) acetic acid (Avantor Performance Materials, Gliwice, Poland) was added to each well. […]

[2] = system: UM-UC-3^GEM (gemcitabine-resistant); test: Antiproliferative activity, sulforhodamine B assay; type: cell-based, human; settings: SRB, 72 h incubation, read-out: IC50 ± SD, UM-UC-3^GEM
From the text: as §1, §2, §3, §4, §5

[3] = system: LoVo (colorectal adenocarcinoma); test: Antiproliferative activity, sulforhodamine B assay; type: cell-based, human; settings: SRB, 72 h incubation, read-out: IC50 ± SD, LoVo
From the text: as §1, §2, §3, §4, §5

[4] = system: UM-UC-3^CDDP/GEM (resistant to cisplatin and gemcitabine); test: Antiproliferative activity, sulforhodamine B assay; type: cell-based, human; settings: SRB, 72 h incubation, read-out: IC50 ± SD, UM-UC-3^CDDP/GEM
From the text: as §1, §2, §3, §4, §5

[5] = system: MDA-MB-231 (breast adenocarcinoma); test: Antiproliferative activity, sulforhodamine B assay; type: cell-based, human; settings: SRB, 72 h incubation, read-out: IC50 ± SD, MDA-MB-231
From the text: as §1, §2, §3, §4, §5

[6] = system: A549 (lung carcinoma); test: Antiproliferative activity, sulforhodamine B assay; type: cell-based, human; settings: SRB, 72 h incubation, read-out: IC50 ± SD, A-549
From the text: as §1, §2, §3, §4, §5

[7] = system: UM-UC-3^CDDP (cisplatin-resistant); test: Antiproliferative activity, sulforhodamine B assay; type: cell-based, human; settings: SRB, 72 h incubation, read-out: IC50 ± SD, UM-UC-3^CDDP
From the text: as §1, §2, §3, §4, §5

[8] = system: MCF-7 (breast adenocarcinoma); test: Antiproliferative activity, sulforhodamine B assay; type: cell-based, human; settings: SRB, 72 h incubation, read-out: IC50 ± SD, MCF-7
From the text: as §1, §2, §3, §4, §5

[9] = system: LoVo^DX (colorectal adenocarcinoma, doxorubicin-resistant); test: Antiproliferative activity, sulforhodamine B assay; type: cell-based, human; settings: SRB, 72 h incubation, read-out: IC50 ± SD, LoVo^DX
From the text: as §1, §2, §3, §4, §5

[10] = system: UM-UC-3^VBL (vinblastine-resistant); test: Antiproliferative activity, sulforhodamine B assay; type: cell-based, human; settings: SRB, 72 h incubation, read-out: IC50 ± SD, UM-UC-3^VBL
From the text: as §1, §2, §3, §4, §5

[11] = system: UM-UC-3 (urinary bladder transitional cell carcinoma); test: Antiproliferative activity, sulforhodamine B assay; type: cell-based, human; settings: SRB, 72 h incubation, read-out: IC50 ± SD, UM-UC-3
From the text: as §1, §2, §3, §4, §5

[12] = system: ten diverse human cancer cells lines and murine non-tumorigenic cell line (Balb/3T3); test: Antiproliferative screen, whole cell line panel (statements in words); type: cell-based; settings: SRB; for antiproliferative activity (in words): across cell lines; for activity against resistant versus parent cell lines (in words): 10d: with exception of the line resistant to gemcitabine
From the text: as §1, §2, §3, §4, §5

[13] = design: method as in PMID 12031802; settings: Cu(II) complex; cited from earlier work

Structure (SMILES)	IC50 ([1]; Mus musculus, BALB/3T3) [µM]	IC50 ([2]; Homo sapiens) [µM]	IC50 ([3]; Homo sapiens, LoVo) [µM]	IC50 ([4]; Homo sapiens) [µM]	IC50 ([5]; Homo sapiens, MDA-MB-231) [µM]	IC50 ([6]; Homo sapiens, A549) [µM]	IC50 ([7]; Homo sapiens) [µM]	IC50 ([8]; Homo sapiens, MCF7) [µM]	IC50 ([9]; Homo sapiens, LoVo/DX) [µM]	IC50 ([10]; Homo sapiens) [µM]	IC50 ([11]; Homo sapiens, UMUC3) [µM]	antiproliferative activity (in words) [12]	activity against resistant versus parent cell lines (in words) [12]	further results
[NH2][Pt]([NH2])([Cl])[Cl] [CDDP, cisplatin, reference compound]	–	–	–	–	–	–	–	–	–	–	–	–	–	IC50 [1]: 10.2 ± 4.8 µM; IC50 [2]: 2.6 ± 0.2 µM; IC50 [3]: 4.4 ± 0.3 µM; IC50 [4]: 25.1 ± 1.9 µM; IC50 [5]: 24.4 ± 4.8 µM; IC50 [6]: 2.7 ± 1 µM; IC50 [7]: 26.1 ± 1.8 µM; IC50 [8]: 6 ± 2.2 µM; IC50 [9]: 3.4 ± 0.2 µM; IC50 [10]: 2.3 ± 0.3 µM; IC50 [11]: 2.4 ± 0.6 µM
COC(=O)/C(=C/Sc1nc(-c2ccccc2)c[nH]1)NC(=O)CNC(=O)OC(C)(C)C [Compound 6b, Boc-Gly-ΔCys(S-4-phenylimidazole)-OMe]	38.4 ± 3.5	35.1 ± 2.8	32.4 ± 2.6	32.5 ± 4	35 ± 10	27.2 ± 7.7	34.6 ± 3.6	31.8 ± 7.8	> 100	33.8 ± 2.6	23.1 ± 2.6	–	–	–
COC(=O)/C(=C/Sc1nc2cc(OC)ccc2o1)NC(=O)CNC(=O)OC(C)(C)C [Compound 6c, Boc-Gly-ΔCys(S-5-methoxybenzoxazole)-OMe]	5.3 ± 1.2	5.2 ± 0.6	8.7 ± 1.1	8.6 ± 1.4	5 ± 0.8	6.2 ± 1.4	7.8 ± 0.7	5.3 ± 0.9	6.4 ± 0.4	6 ± 1.5	7.2 ± 0.6	most potent representatives	equipotential towards both resistant and parent cell lines	–
COC(=O)/C(=C/Sc1nc2ccccc2s1)NC(=O)CNC(=O)OC(C)(C)C [Compound 6d, Boc-Gly-ΔCys(S-benzothiazole)-OMe]	5.8 ± 0.9	4.6 ± 0.5	6.7 ± 0.7	6.2 ± 0.8	6.1 ± 0.6	5.6 ± 0.9	6.4 ± 0.4	4.5 ± 0.5	6.2 ± 0.6	4.9 ± 0.8	4.6 ± 0.4	most potent representatives	equipotential towards both resistant and parent cell lines	–
COC(=O)/C(=C/Sc1nc[nH]n1)NC(=O)[C@H](Cc1ccccc1)NC(=O)OC(C)(C)C [Compound 7a, Boc-Phe-ΔCys(S-triazole)-OMe]	19.7 ± 1.9	65.2 ± 4.9	75.8 ± 6.5	62.2 ± 5.3	53.3 ± 5.5	60.7 ± 12.1	67.7 ± 3.9	74.5 ± 5.8	> 100	54.9 ± 3.5	56 ± 5.7	markedly lower, if any, activity	–	–
COC(=O)/C(=C/Sc1nc(-c2ccccc2)c[nH]1)NC(=O)[C@H](Cc1ccccc1)NC(=O)OC(C)(C)C [Compound 7b, Boc-Phe-ΔCys(S-4-phenylimidazole)-OMe]	7.6 ± 0.9	19.9 ± 3.3	16.4 ± 1.7	17.2 ± 2.1	15.2 ± 4.4	12 ± 4	19 ± 3.2	15.5 ± 2.5	23 ± 2.2	17.3 ± 1.7	13.5 ± 4.5	–	–	–
COC(=O)/C(=C/Sc1nc2cc(OC)ccc2o1)NC(=O)[C@H](Cc1ccccc1)NC(=O)OC(C)(C)C [Compound 7c, Boc-Phe-ΔCys(S-5-methoxybenzoxazole)-OMe]	5.3 ± 0.4	7 ± 0.5	6.3 ± 0.5	5.9 ± 0.4	7.1 ± 0.8	4 ± 1.1	6.8 ± 0.8	4.5 ± 0.4	4.5 ± 0.4	5.8 ± 0.6	6.2 ± 0.8	most potent representatives	equipotential towards both resistant and parent cell lines	–
COC(=O)/C(=C/Sc1nc2ccccc2s1)NC(=O)[C@H](Cc1ccccc1)NC(=O)OC(C)(C)C [Compound 7d, Boc-Phe-ΔCys(S-benzothiazole)-OMe]	3.1 ± 0.6	8 ± 2.3	9.6 ± 0.9	9.1 ± 1.2	10.8 ± 0.4	6.6 ± 1.4	11.2 ± 1.5	6.8 ± 0.5	8.6 ± 0.9	6.3 ± 1	6.7 ± 1.4	most potent representatives	equipotential towards both resistant and parent cell lines	–
COC(=O)/C(=C/Sc1nc2ccccc2s1)NC(=O)[C@@H](N)Cc1ccccc1 [Compound 10d, HCl Phe-ΔCys(S-benzothiazole)-OMe]	42.2 ± 9.3	67.8 ± 9.6	70.3 ± 21.5	25.3 ± 8	24.4 ± 3	14 ± 5.6	16.6 ± 2.5	22 ± 4.5	33.1 ± 9	9.4 ± 2.2	30.5 ± 3.7	–	more effective against resistant cell lines	–
NCC(=O)N/C(=C\c1ccccc1)C(=O)O [Gly(Z)ΔPhe]	–	–	–	–	–	–	–	–	–	–	–	–	–	logβ of the analogous species with {N-NH2, Namide} binding mode [13]: 2.19
